Key:
Type in all cases: in vivo
[1] = system: Amaranthus retroflexus (AMARE); experiment: Post-emergence herbicidal activity, AMARE; conditions: 7 days after treatment; for pest or weed control at 100 ppm: Amaranthus retroflexus, 168 h, Table 3a; for Post-emergence (100 ppm) AMARE: Table 3b
Procedure: (§1) Selected compounds of the invention were screened at 100 PPM against Amaranthus retroflexus (AMARE), Setaria italica (SETIT), and Echinochloa crus-galli (ECHCG). […]
(§2) Compounds were formulated in 25% Acetone, 1% Crop oil concentrate (COC-Agridex), 0.1% Tween-20, and 2.5% Ammonium sulphate (AMS). Three replicate pots were treated with each compound. Treatment consisting of the above formulation excluding active compound was applied as a treatment control (TC). Plants were treated with the test compound solution in a laboratory spray chamber fitted with 8003 flat fan nozzles calibrated to deliver 187-200 L ha^−1 at 269 kPa. Plants were placed back in the growth chamber and evaluated for % visual injury compared to TC 7 days after treatment (DAT). The data presented in Table 3 indicate a percentage control, where 100% control indicates complete inhibition of growth. […]

[2] = system: Echinochloa crus-galli (ECHCG); experiment: Post-emergence herbicidal activity, ECHCG; conditions: 7 days after treatment; for pest or weed control at 100 ppm: Echinochloa crus-galli, 168 h, Table 3a; for Post-emergence (100 ppm) ECHCG: Table 3b
Procedure: as §1, §2

Setaria italica (SETIT) [3] = experiment: Post-emergence herbicidal activity, SETIT; conditions: 7 days after treatment; for pest or weed control at 100 ppm: Setaria italica, 168 h, Table 3a; for Post-emergence (100 ppm) SETIT: Table 3b
Procedure: Selected compounds of the invention were screened at 100 PPM against Amaranthus retroflexus (AMARE), Setaria italica (SETIT), and Echinochloa crus-galli (ECHCG).
(§3) Accordingly, PPO susceptible weed seeds were sown in 5″×5″ pots by quadrant containing Miracle-Gro potting mix (Scotts Miracle-Gro Company, Marysville, OH. USA) and grown in a Conviron growth chamber with appropriate growth conditions (temperature of 26/22° C. with photoperiod 16/8 h light day/night and light intensity of 300 μmol m^−2 s^−1 supplemented by LED lamps). Relative humidity in the growth chamber was maintained at around 65%. Plants were grown until 2-4 leaf stage and thinned to 5-8 plants per quadrant per species.
(§4) Compounds were formulated in 25% Acetone, 1% Crop oil concentrate (COC-Agridex), 0.1% Tween-20, and 2.5% Ammonium sulphate (AMS). Three replicate pots were treated with each compound. Treatment consisting of the above formulation excluding active compound was applied as a treatment control (TC). Plants were treated with the test compound solution in a laboratory spray chamber fitted with 8003 flat fan nozzles calibrated to deliver 187-200 L ha^−1 at 269 kPa. Plants were placed back in the growth chamber and evaluated for % visual injury compared to TC 7 days after treatment (DAT). The data presented in Table 3 indicate a percentage control, where 100% control indicates complete inhibition of growth.
(§5) Selected compounds of the invention were screened at 100 PPM against Amaranthus retroflexus (AMARE), Echinochloa crus-galli (ECHCG), Kochia scoparia (KCHSC), and Setaria italica (SETIT).
as §3, with “5″ 5″” for “5″×5″”, “OH,” for “OH.”, “[…]” for “m^−2”

Kochia scoparia (KCHSC) [4] = experiment: Pre-emergence herbicidal activity, KCHSC; conditions: 7 days after treatment
Description: (§6) Selected compounds of the invention were screened at 200 PPM against Amaranthus retroflexus (AMARE). Echinochloa crus-galli (ECHCG). Kochia scoparia (KCHSC), and Selaria italica (SETIT).
(§7) Accordingly, PPO susceptible weed seeds were planted in 5″×5″ pots by quadrant containing custom field soil mix (Sandy loam with 4.7% OM, pH 7.0) and covered with a fine layer of the same soil. Compounds were formulated in 25% Acetone, 1% Crop oil concentrate (COC-Agridex), 0.1% Tween-20, and 2.5% Ammonium sulphate (AMS). Three replicate pots were treated with each compound. Treatment consisting of the above formulation excluding active compound was applied as a treatment control (TC). Pots were treated with the test compound solution in a laboratory spray chamber fitted with 8003 flat fan nozzles calibrated to deliver 187-200 L ha^−1 at 269 kPa. Compound was incorporated into the soil by simulating rainfall equivalent to 0.2 mm using the same track sprayer. Subsequently, pots were irrigated from the bottom until assessed for % growth and germination inhibition. Pots were placed back in the growth chamber and evaluated for % growth and germination inhibition compared to TC 7 days after treatment (DAT). Growth conditions are similar to the ones mentioned in POST emergence assay.
(§8) The data presented in Table 4 indicate a percentage control, where 100% control indicates complete inhibition of growth.

[5] = system: Amaranthus retroflexus (AMARE); experiment: Pre-emergence herbicidal activity, AMARE; conditions: 7 days after treatment
Description: as §6, §7, §8

[6] = system: Echinochloa crus-galli (ECHCG); experiment: Pre-emergence herbicidal activity, ECHCG; conditions: 7 days after treatment
Description: as §6, §7, §8

Setaria italica (SETIT) [7] = experiment: Pre-emergence herbicidal activity, SETIT; conditions: 7 days after treatment
Description: as §6, §7, §8

Kochia scoparia (KCHSC) [8] = experiment: Post-emergence herbicidal activity, KCHSC; conditions: 7 days after treatment, Table 3b
Procedure: as §5
as §3, with “5″ 5″” for “5″×5″”, “OH,” for “OH.”, “[…]” for “m^−2”
as §4

SMILES	pest or weed control at 100 ppm [1]	pest or weed control at 100 ppm [2]	pest or weed control at 100 ppm (Setaria italica (SETIT) [3])	Pre-emergence (200 ppm) KCHSC (Kochia scoparia (KCHSC) [4])	Pre-emergence (200 ppm) AMARE [5]	Post-emergence (100 ppm) AMARE [1]	Pre-emergence (200 ppm) ECHCG [6]	Pre-emergence (200 ppm) SETIT (Setaria italica (SETIT) [7])	Post-emergence (100 ppm) KCHSC (Kochia scoparia (KCHSC) [8])	Post-emergence (100 ppm) ECHCG [2]	Post-emergence (100 ppm) SETIT (Setaria italica (SETIT) [3])
COC(=O)CCNC(=O)[C@@H](C)N1C(=O)C(F)(F)Oc2cc(F)c(-c3c(F)c(F)c(F)c(F)c3F)cc21 [Compound 131, methyl (R)-3-(2-(2,2,7-trifluoro-3-oxo-6-(perfluorophenyl)-2,3-dihydro-4H-benzo[b][1,4]oxazin-4-yl)propanamido)propanoate]	100%	15%	83%								
COC(=O)[C@H](OC)N1C(=O)C(F)(F)Oc2cc(F)c(-c3c(F)c(F)c(F)c(F)c3F)cc21 [Compound 185, methyl (S)-2-methoxy-2-(2,2,7-trifluoro-3-oxo-6-(perfluorophenyl)-2,3-dihydro-4H-benzo[b][1,4]oxazin-4-yl)acetate]				83%	100%	100%	43%	100%	100%	50%	100%
COC(=O)CCN(C)C(=O)[C@H](C)N1C(=O)C(F)(F)Oc2cc(F)c(-c3c(F)c(F)c(F)c(F)c3F)cc21 [Compound 132, methyl (S)-3-(N-methyl-2-(2,2,7-trifluoro-3-oxo-6-(perfluorophenyl)-2,3-dihydro-4H-benzo[b][1,4]oxazin-4-yl)propanamido)propanoate]	100%	70%	100%								
COC(=O)[C@@H]1CCCN1C(=O)CN1C(=O)C(F)(F)Oc2cc(F)c(-c3c(F)c(F)c(F)c(F)c3F)cc21 [Compound 74, methyl (2-(2,2,7-trifluoro-3-oxo-6-(perfluorophenyl)-2,3-dihydro-4H-benzo[b][1,4]oxazin-4-yl)acetyl)-L-prolinate]	100%	33%	100%								
COC(=O)[C@@H](C)N1C(=O)C(F)(F)Oc2cc(F)c(-c3c(F)c(F)c(F)c(F)c3F)cc21 [Compound 8, methyl (R)-2-(2,2,7-trifluoro-3-oxo-6-(perfluorophenyl)-2,3-dihydro-4H-benzo[b][1,4]oxazin-4-yl)propanoate]	80%	45%	75%								
C[C@@H](C(=O)O)N1C(=O)C(F)(F)Oc2cc(F)c(-c3c(F)cc(F)c(F)c3F)cc21 [Compound 78, (2S)-2-(2,2,7-trifluoro-3-oxo-6-(2,3,4,6-tetrafluorophenyl)-2,3-dihydro-4H-benzo[b][1,4]oxazin-4-yl)propanoic acid]	100%	70%	100%	60%	100%	100%	5%	18%	93%	70%	100%
CN(CC(=O)O)C(=O)CN1C(=O)C(F)(F)Oc2cc(F)c(-c3c(F)c(F)c(F)c(F)c3F)cc21 [Compound 85, N-methyl-N-(2-(2,2,7-trifluoro-3-oxo-6-(perfluorophenyl)-2,3-dihydro-4H-benzo[b][1,4]oxazin-4-yl)acetyl)glycine]	100%	25%	88%								
C[C@@H](C(=O)O)N1C(=O)C(F)(F)Oc2cc(F)c(-c3c(F)c(F)c(F)c(F)c3F)cc21 [Compound 11, (S)-2-(2,2,7-trifluoro-3-oxo-6-(perfluorophenyl)-2,3-dihydro-4H-benzo[b][1,4]oxazin-4-yl)propanoic acid]	95%	83%	96%								
COC(=O)CCN(C)C(=O)CN1C(=O)C(F)(F)Oc2cc(F)c(-c3c(F)c(F)c(F)c(F)c3F)cc21 [Compound 80, methyl 3-(N-methyl-2-(2,2,7-trifluoro-3-oxo-6-(perfluorophenyl)-2,3-dihydro-4H-benzo[b][1,4]oxazin-4-yl)acetamido)propanoate]	100%	75%	93%	0%	98%	100%	0%	3%	20%	75%	93%
COC(=O)CCNC(=O)[C@H](C)N1C(=O)C(F)(F)Oc2cc(F)c(-c3c(F)c(F)c(F)c(F)c3F)cc21 [Compound 130, methyl (S)-3-(2-(2,2,7-trifluoro-3-oxo-6-(perfluorophenyl)-2,3-dihydro-4H-benzo[b][1,4]oxazin-4-yl)propanamido)propanoate]	100%	92%	100%								
COC(=O)C1CN(C(=O)CN2C(=O)C(F)(F)Oc3cc(F)c(-c4c(F)c(F)c(F)c(F)c4F)cc32)C1 [Compound 86, methyl 1-(2-(2,2,7-trifluoro-3-oxo-6-(perfluorophenyl)-2,3-dihydro-4H-benzo[b][1,4]oxazin-4-yl)acetyl)azetidine-3-carboxylate]				27%	68%	100%	5%	7%	11%	69%	100%
COC(=O)[C@@H](C)N1C(=O)C(F)(F)Oc2cc(F)c(-c3c(F)cc(F)c(F)c3F)cc21 [Compound 77, methyl (2R)-2-(2,2,7-trifluoro-3-oxo-6-(2,3,4,6-tetrafluorophenyl)-2,3-dihydro-4H-benzo[b][1,4]oxazin-4-yl)propanoate]	100%	88%	98%	0%	100%	100%	3%	70%	100%	88%	98%
